The values that follow are results of earlier work, collected in patent US20190008906A1, “COMPOSITIONS FOR MANAGEMENT OF WOUNDS, SKIN DISEASES, DEHYDRATION, CHRONIC DISEASES, AND RESPIRATORY DISEASES” (priority 2017, published 2019).

For this series the following is noted: laboratory animals, mainly when given orally.

Regarding `CC1=CC(=O)C(C(C)C)=CC1=O` [thymoquinone], the “safety in toxicity studies” value is reported as “quite safe”.
